Experiments:
Type in all cases: physicochemical
[1] = Loss on drying (moisture); settings: Table 1b
Procedure: In one embodiment, the lossy coated particle contains water. In this embodiment, the lossy coated particle comprises at least 0.1 percent, by weight, water, such as at least 0.3 percent, by weight, water, such as at least 0.5 percent, by weight, water when measured using loss on drying at 105° C. until the weight of the lossy coated particles has stabilized. In one embodiment, the lossy coated particle retains water when measured by loss on drying prior to sintering, such as moisture content of at least 0.1 percent by weight, such as from about 0.1 to about 3 percent, such as from about 0.5 to about 2 percent, by weight.

[2] = Dielectric properties (e′, e″, loss tangent, Q value) by Slotted Line Method
Text: The property of permittivity is the measure of the resistance to forming an electric field. For purposes of comparing materials in air, it is often convenient to describe the permittivity of material in air where the permittivity is more specifically called “relative permittivity” or €r. This is a complex number represented by the following equation: […]
where e′ (the real portion of the complex number) is the dielectric constant (energy storage) and e″ (the imaginary portion of the complex number) is the dielectric loss or dissipation factor (energy dissipated as heat). The ratio of dielectric loss (e″) over the dielectric constant (e′) is called the loss tangent (tan δ) or power factor.
For purposes of this invention, the Q value is calculated for the frequency that the material is to be processed (e.g., 27 MHz). The Q value is affected by physical and chemical properties such as density (porosity/particle size), moisture (conductivity), temperature, and molecular polarizability. The measurements obtained by this method can eliminate the need to measure and evaluate these properties independently.
This process is referred to as the “Slotted Line Method.” Unless otherwise stated, the Slotted line method was used for the calculation of e′, e″, and Q value herein with the frequency range set to 26-28 MHz (31 points resolution) and values of e′ and e″ were recorded from the 27 MHz data point.

Water activity = settings: Table 1b
[3] = Table 1b, surface stabilizing agents, 27 MHz

SMILES | Loss on Drying @ 105° C. [1] | e′ [2, 3] | e″ [2, 3] | Water Activity (Water activity) | e′ ([2]; Table 1a, dielectric constant, 27 MHz data point, Slotted Line Method) | e″ ([2]; Table 1a, dielectric loss, 27 MHz data point, Slotted Line Method) | Loss Tangent ([2]; Table 1a, e″/e′, 27 MHz)
OC[C@H]1O[C@H](O[C@H]2O[C@H](CO)[C@@H](O)[C@H](O)[C@H]2O)[C@H](O)[C@@H](O)[C@@H]1O [Trehalose] | 0.137 | 1.5185 | 0.0007 | 0.1935 | – | – | –
OC[C@@H](O)[C@H](O)[C@@H](O)CO [Xylitol (Xylitab ® 100), Xylitol] | 0.035 | 1.751 | 0.010 | 0.453 | – | – | –
OC[C@@H](O)[C@@H](O[C@H]1O[C@H](CO)[C@@H](O)[C@H](O)[C@H]1O)[C@H](O)[C@@H](O)CO [Maltitol (SweetPearl DC300), Maltitol] | – | – | – | – | 1.6214 | 0.0035 | 0.0022

From patent publication US20180147153A1, “PROCESS FOR MAKING A COATED DOSAGE FORM” (Johnson & Johnson Consumer Inc., priority 2016, published 2018)
